Laboratory results as given in patent US7981878B2, “Tumor treatment with gliotoxin derivatives” (priority 2005, dated 2011).

Columns and labels:
RL-7 = assay: Apoptosis FACS in leukaemia cell line RL-7; type: cell-based; settings: RL-7, 0.2 μM gliotoxin, 24 h
Protocol: FIG. 7: (A) The apoptotic activity of gliotoxin on further B-CLL patient samples (CLL4-CLL8) is illustrated. The (non-Notch2-associated) leukaemia cell lines (or the leukaemia cell lines not characterised by ligand-independent Notch2 fragments) Jurkat (T-ALL), SH1 (hairy cell carcinoma), RL-7 and K562 (CML) are resistant to a treatment with 0.2 μM (corresponding to 60 ng/ml) of gliotoxin. Cells were incubated for 24 h+/−gliotoxin, and the percentage of apoptotic cells (probidium-iodide+/annexinV+) was determined by means of FACS analysis. In none of the 4 non-Notch2-associated cell lines indicated, the application of 0.2 μM of gliotoxin led to a significant induction of apoptosis within 24 hours. The cytotoxic effect of Gliotoxin correlates with the Notch2 activity in leukemias. (B) Corresponding EMSA showing the activity of Notch2 in B-CLL cells and in leukemic cell lines (Jurkat, SH1, RL7, and K562).

[1] = system: SNU398 (hepatocellular carcinoma); assay: Cell count analysis SNU398; type: cell-based, human
Protocol: (§1) FIG. 8 a-d: Effects of gliotoxin on cell counts of various human tumour cell lines in vitro. Cell counts of a) hepatocellular carcinoma cell lines HepG2, Huh7, SNU398, Hep3b, HeLa (cervix) and the cholangiocarcinoma cell line NEC as well as b) the pancreatic cancer cell line Panc-1 and the melanoma cell lines d) MelJuso, Meljuso-Bcl-2 (+) and 607B after 72 h treatment with 200 nM gliotoxin; c-d) Cell count dose range experiments with c) pancreatic carcinoma cell lines Panc-1 and MiaPaCa as well as melanoma cell lines MelJuso, 518A2 and 607B using 25, 50 100 and 200 nM gliotoxin for 24 h. All data are given relative to control ±standard deviation.
(§2) Tumour cells were seeded at a density of 10,000 cells/well in 24-well plates. 24 h after seeding, medium containing gliotoxin was added to yield desired concentrations of gliotoxin. At time points indicated, culture medium was removed by suction. Adherent cells were washed with DPBS (Cambrex, Verviers, Belgium) and incubated with trypsin (Gibco) at 37° C. Detached cells were transferred to test tubes containing Cellpack isotonic fluid (Sysmex Europe, Bornbarch, Germany) and counted with a Coulter Z1 electronic cell counter (Beckman Coulter, Bedford, UK).

[2] = system: PBMCs from healthy donors; assay: Apoptosis of control PBMCs from healthy donors by FACS; type: cell-based, human; settings: 0.2 μM gliotoxin, 4 hours
Protocol: FIG. 4: Gliotoxin induces apoptosis in unstimulated as well as in TPA-stimulated B-CLL cells within 4 hours. Normal PBMCs (peripheral blood mononuclear cells) from healthy donors show a markedly lower Notch2 activity. Although gliotoxin inhibits Notch2 also in normal, TPA-stimulated cells, the gliotoxin-caused apoptosis rate is markedly lower in normal cells as compared to B-CLL cells. Non-stimulated and TPA stimulated PBMC's from healthy donors (HD) are less sensitive to 0.2 μM Gliotoxin despite a basal Notch2 activity. PBMC's and CLL cells were incubated with 0.2 μM Gliotoxin with or without TPA for 4 hours and the Notch2 activity as well as the percentage of apoptotic cells were determined by EMSA and FACS analysis, respectively.
After 4 hours of gliotoxin treatment, massive signs of the starting apoptosis (AnnexinV+) could already be recognized in B-CLL cells. This effect was increased by TPA (a phorbol ester which stimulates the activation of lymphocytes).

518A2 (melanoma) = assay: Cell count analysis 518A2; type: cell-based, human
Protocol: as §1, §2

[3] = system: Nec (cholangiocellular carcinoma); assay: Cell count analysis Nec; type: cell-based, human; settings: 200 nM gliotoxin, 72 h
Protocol: as §1, §2

[4] = system: Panc-1 (pancreatic cancer); assay: Apoptosis flow cytometry (Annexin V / 7-AAD) Panc-1; type: cell-based, human; settings: Panc-1, 200 nM gliotoxin, 24 h
Protocol: FIG. 10 a-b: Effects of gliotoxin on Notch2 regulation and apoptosis. The melanoma cell line 518A2 (A) and the pancreatic cancer cell line Panc-1 (B) were treated with 200 nM gliotoxin or vehicle control for 24 h Notch2 activity was analysed by band shift assay. Apoptosis was measured as annexin V and 7-AAD double positivity by FACS. Data are given as percentage of apoptotic cells ±standard deviation.
Tumour cells were seeded at a density of 50,000 cells/well in 6 well plates. 24 h after seeding, medium containing gliotoxin was added to yield desired concentrations of gliotoxin. After further 24 h cells were harvested, counted and washed twice with PBS. Then, 100,000 cells were resuspended in 100 μl binding buffer and stained with Annexin V-PE and 7-AAD (both Becton Dickinson, N.J., USA) according to manufacturer's recommendations. After 20 minutes incubation time at room temperature in the dark, 400 μl binding buffer was added and immediately analyzed on a FACScalibur flow cytometer using CellQuest software (both Becton Dickinson, N.J., USA)

HCT-15 = settings: cited from earlier work

CN1C(=O)[C@]23CC4=CC=C[C@H](O)[C@H]4N2C(=O)[C@@]1(CO)SS3 [gliotoxin, [3R-(3α,5aβ,6β,10aα)]-2,3,5a,6-tetrahydro-6-hydroxy-3-(hydroxymethyl)-2-methyl-10H-3,10a-epi-dithiopyrazino[1,2-a]indol-1,4-dion]
induction of apoptosis (probidium-iodide+/annexinV+) (RL-7): resistant
mean reduction of cell numbers compared to vehicle treated controls ([1]; SNU398, 200 nM gliotoxin, 72 h): 96%
response ([1]; SNU-398, 0.2 μM (60 ng/ml)): ~100%
apoptosis ([2]; TPA-stimulated PBMCs): 17%
apoptosis ([2]; non-stimulated PBMCs): 20%
effect on cell count (518A2 (melanoma); 518A2, 200 nM gliotoxin, 72 h): very effective
cytotoxicity in dose range experiment (cell count) (518A2 (melanoma); 518A2, 25, 50, 100 and 200 nM, 24 h): clear dose dependent cytotoxicity
mean reduction of cell numbers compared to vehicle treated controls [3]: 93%
apoptotic cells (annexin V and 7-AAD double positive) [4]: 47%
IC50 with regard to cell viability (HCT-15): 0.039 mg/L
